Legend:
DIGSA [1] = test: Pre-emergence action against DIGSA, 1280 g/ha; type: in vivo, Digitaria sanguinalis; settings: visual scoring after about 3 weeks vs untreated controls, 100% = plants have died, 0% = like control plants
How it was run: (§1)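 Soil-surface application after sowing, before emergence: WP or EC formulations in water with 0.5% additive, 600 litres per hectare, onto sandy loam pots. Damage rated visually in % relative to untreated plants after roughly 3 weeks in a greenhouse.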

ECHCG [2] = test: Pre-emergence action against ECHCG, 1280 g/ha; type: in vivo, Echinochloa crus-galli; settings: visual scoring after about 3 weeks vs untreated controls, 100% = plants have died, 0% = like control plants
How it was run: as §1

LOLRI = test: Pre-emergence action against LOLRI, 1280 g/ha; type: in vivo, Lolium rigidum; settings: visual scoring after about 3 weeks vs untreated controls, 100% = plants have died, 0% = like control plants
How it was run: as §1

POAAN [3] = test: Pre-emergence action against POAAN, 1280 g/ha; type: in vivo, Poa annua; settings: visual scoring after about 3 weeks vs untreated controls, 100% = plants have died, 0% = like control plants
How it was run: as §1

SETVI [4] = test: Pre-emergence action against SETVI, 1280 g/ha; type: in vivo, Setaria viridis; settings: visual scoring after about 3 weeks vs untreated controls, 100% = plants have died, 0% = like control plants
How it was run: as §1

AMARE [5] = test: Pre-emergence action against AMARE, 1280 g/ha; type: in vivo, Amaranthus retroflexus; settings: scored visually after about 3 weeks vs untreated controls (100% = plants have died)
How it was run: as §1

MATIN [6] = test: Pre-emergence action against MATIN, 1280 g/ha; type: in vivo, Tripleurospermum inodorum (Matricaria inodora); settings: scored visually after about 3 weeks vs untreated controls (100% = plants have died)
How it was run: as §1

STEME = test: Pre-emergence action against STEME, 1280 g/ha; type: in vivo, Stellaria media; settings: scored visually after about 3 weeks vs untreated controls (100% = plants have died)
How it was run: as §1

VERPE [7] = test: Pre-emergence action against VERPE, 1280 g/ha; type: in vivo, Veronica persica; settings: scored visually after about 3 weeks vs untreated controls (100% = plants have died)
How it was run: as §1

ALOMY [8] = test: Post-emergence action against ALOMY, 1.28 kg/ha; type: in vivo, Alopecurus myosuroides; settings: dosage 1280 g/ha, visual rating about 3 weeks after treatment vs untreated controls
How it was run: (§2)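 Spray at one-leaf stage with WP/EC + 0.5% additive, 600 L water/ha. Greenhouse, optimum conditions, ~3 wk. Visual % control vs untreated; 0 = no effect, 100 = dead.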

DIGSA [9] = test: Post-emergence action against DIGSA, 1.28 kg/ha; type: in vivo, Digitaria sanguinalis; settings: dosage 1280 g/ha, visual rating about 3 weeks after treatment vs untreated controls
How it was run: as §2

ECHCG [10] = test: Post-emergence action against ECHCG, 1.28 kg/ha; type: in vivo, Echinochloa crus-galli; settings: dosage 1280 g/ha, visual rating about 3 weeks after treatment vs untreated controls
How it was run: as §2

POAAN [11] = test: Post-emergence action against POAAN, 1.28 kg/ha; type: in vivo, Poa annua; settings: dosage 1280 g/ha, visual rating about 3 weeks after treatment vs untreated controls
How it was run: as §2

SETVI [12] = test: Post-emergence action against SETVI, 1.28 kg/ha; type: in vivo, Setaria viridis; settings: dosage 1280 g/ha, visual rating about 3 weeks after treatment vs untreated controls
How it was run: as §2

AMARE [13] = test: Post-emergence action against AMARE, 1.28 kg/ha; type: in vivo, Amaranthus retroflexus; settings: dosage 1280 g/ha, visual rating about 3 weeks after treatment vs untreated controls (100% = plants died)
How it was run: as §2

KCHSC = test: Post-emergence action against KCHSC, 1.28 kg/ha; type: in vivo, Bassia scoparia; settings: dosage 1280 g/ha, visual rating about 3 weeks after treatment vs untreated controls (100% = plants died)
Method: • a) Seeds of mono- and dicotyledonous weed plants are placed in plastic pots in sandy loam soil (twin sowing with one species each of mono- or dicotyledonous weed plants per pot), covered with soil and cultivated in a greenhouse under controlled growth conditions. 2 to 3 weeks after sowing, the test plants are treated at the one-leaf stage. The compounds of the invention, formulated in the form of wettable powders (WP) or as emulsion concentrates (EC), are applied to the green parts of the plants as aqueous suspension or emulsion with addition of 0.5% additive at a water application rate equivalent to 600 litres per hectare. After the test plants have been kept in the greenhouse under optimum growth conditions for about 3 weeks, the activity of the preparations is rated visually in comparison to untreated controls. For example, 100% activity=the plants have died, 0% activity=like control plants. As shown by the results, compounds of the general formula (I) of the invention, in post-emergence treatment, have very good herbicidal efficacy (90% to 100% herbicidal action) against harmful plants such as Abutilon theophrasti, Digitaria sanguinalis, Echinochloa crus-galli, Matricaria inodora, Poa annua, at an application rate of 1.28 kg of active substance per hectare.

MATIN [14] = test: Post-emergence action against MATIN, 1.28 kg/ha; type: in vivo, Tripleurospermum inodorum (Matricaria inodora); settings: dosage 1280 g/ha, visual rating about 3 weeks after treatment vs untreated controls (100% = plants died)
How it was run: as §2

VERPE [15] = test: Post-emergence action against VERPE, 1.28 kg/ha; type: in vivo, Veronica persica; settings: dosage 1280 g/ha, visual rating about 3 weeks after treatment vs untreated controls (100% = plants died)
How it was run: as §2

ALOMY [16] = test: Pre-emergence action against ALOMY, 1280 g/ha; type: in vivo, Alopecurus myosuroides; settings: visual scoring after about 3 weeks vs untreated controls, 100% = plants have died, 0% = like control plants
How it was run: as §1

SMILES	Pre-emergence action against DIGSA (DIGSA [1]) [%]	Pre-emergence action against ECHCG (ECHCG [2]) [%]	Pre-emergence action against LOLRI (LOLRI) [%]	Pre-emergence action against POAAN (POAAN [3]) [%]	Pre-emergence action against SETVI (SETVI [4]) [%]	Pre-emergence action against AMARE (AMARE [5]) [%]	Pre-emergence action against MATIN (MATIN [6]) [%]	Pre-emergence action against STEME (STEME) [%]	Pre-emergence action against VERPE (VERPE [7]) [%]	Post-emergence action against ALOMY (ALOMY [8]) [%]	Post-emergence action against DIGSA (DIGSA [9]) [%]	Post-emergence action against POAAN (POAAN [11]) [%]	Post-emergence action against SETVI (SETVI [12]) [%]	Post-emergence action against KCHSC (KCHSC) [%]	Post-emergence action against MATIN (MATIN [14]) [%]	Post-emergence action against VERPE (VERPE [15]) [%]	Pre-emergence action against ALOMY (ALOMY [16]) [%]	also measured
COC(=O)CNC(=O)COc1nn(-c2ccccc2F)c(-c2ccnc(F)c2)c1Br [VIII-009]	100	100	90	100	100	100	100	100	100	100	100	100	90	90	90	100		Post-emergence action against ECHCG (ECHCG [10]): 100%; Post-emergence action against AMARE (AMARE [13]): 90%
N#CCCNC(=O)COc1nn(-c2ccccc2F)c(-c2ccc(F)nc2)c1Br [Example X-032]	100	100	100	100	100	100	100	100	100	100		100		90	90	100	100	
CONC(=O)COc1nn(-c2ccc(F)cc2F)c(-c2ccc(F)cn2)c1Br [II-004]	100		90	100						100	100			90		100	100	
CCOC(=O)COc1nn(-c2ccccc2F)c(-c2ccnnc2)c1Br [IV-001, Ethyl {[4-bromo-1-(2-fluorophenyl)-5-(pyridazin-4-yl)-1H-pyrazol-3-yl]oxy}acetate]										100			100	90				pest or weed control at 1280 g/ha (ECHCG [2]; Echinochloa crus-galli, 504 h): 90%; pest or weed control at 1280 g/ha (LOLRI; Lolium rigidum, 504 h): 100%; pest or weed control at 1280 g/ha (POAAN [3]; Poa annua, 504 h): 100%; pest or weed control at 1280 g/ha (SETVI [4]; Setaria viridis, 504 h): 100%; pest or weed control at 1280 g/ha (AMARE [5]; Amaranthus retroflexus, 504 h): 90%; pest or weed control at 1280 g/ha (MATIN [6]; Tripleurospermum inodorum, 504 h): 90%; pest or weed control at 1280 g/ha (STEME; Stellaria media, 504 h): 90%; pest or weed control at 1280 g/ha (ECHCG [10]; Echinochloa crus-galli, 504 h): 90%; pest or weed control at 1280 g/ha (POAAN [11]; Poa annua, 504 h): 100%; pest or weed control at 1280 g/ha (VERPE [15]; Veronica persica, 504 h): 90%

From patent publication US12180187B2, “1-phenyl-5-azinylpyrazolyl-3-oxyalkyl acids and their use for controlling unwanted plant growth” (BAYER AKTIENGESELLSCHAFT, priority 2019, dated 2024)
